Experimental findings from patent publication US20190269666A1, “COMBINATION THERAPY WITH MERESTINIB AND ANTI-PD-L1 OR ANTI-PD-1 INHIBITORS FOR USE IN THE TREATMENT OF CANCER” (Eli Lilly and Company, priority 2016, published 2019) are described below.

The test system of data set [1] is CT26 colorectal cancer model. In words: Study S082015: single agent merestinib in CT26 syngeneic mouse tumor model. Format: in vivo. The following applies: for Body weight change from baseline (%) / T/C %: Day 26. The method, then:
A syngeneic mouse tumor model is used to evaluate potential combination effect of merestinib and anti-PD-L1 antibody is the CT26 colorectal cancer model using the mouse colorectal cancer line CT26. This experiment is conducted in immune competent mice (Grosso and Jure-Kunkel, Cancer Immunity Vol. 13, p. 5, January 2013; Duraiswamy et al, Cancer Research, Jun. 15, 2013 73; 3591.). Anti-PD-L1 antibody surrogate (178G7, LSN3370181) (Eppihimer et al. Microcirculation 2002:9(2):133) is used in the mouse study.
Female BALB/c mice (18-20 gm) from Envigo (Harlan Laboratories) are used for this study. Food and water are available ad libitum. Animals are acclimated for one week prior to any experimental manipulation. The study is performed in accordance with AALAC accredited institutional guidelines.
Merestinib is formulated as a solution in 10% PEG 400 in 90% (20% Captisol in water) once weekly. Anti-PD-L1 antibody (178G7, LSN3370181) is formulated in PBS (phosphate buffered saline).
CT26 cells (from internal in vivo pharmacology cell culture group lot CT26.WT.3184878) are used for implantation. Approximately 1×10^6 cells in HBSS are implanted subcutaneously into the right hind flank of the animal under anesthesia.
Study S082015 has four groups: 1) vehicle control (10% PEG 400 in 90% [20% Captisol in water]) dosed orally once daily for 21 days; 2) single agent merestinib at 6 mg/kg once daily orally for 21 days; 3) single agent merestinib at 12 mg/kg once daily orally for 21 days; 4) single agent merestinib at 24 mg/kg once daily orally for 21 days. Dosing of merestinib is initiated at Day 6 post-implant of the CT26 cells. There are 15 animals per group. Five animals per group are taken down on Day 13 and on Day 20 post-implant of CT26 cells for the harvesting of spleens and tumors for the interrogation of the effect of merestinib on immune functions. Five animals per group remain to the end of the study (Day 26). Tumor volumes and body weight are measured bi-weekly. Tumor volume is estimated by using the formula: v=l×w2×0.536 where l=larger of measured diameter and w=smaller of perpendicular diameter. At the end of the study, animals are sacrificed using CO2 and cervical dislocation.
Tumor volume is transformed to the log scale to equalize variance across time and treatment groups. The log volume data are analyzed with a two-way repeated measures analysis of variance by time and treatment using the MIXED procedures in SAS software (Version 9.3). The correlation model for the repeated measures is spatial power. Treated groups are compared to the control group at each time point. The MIXED procedure is also used separately for each treatment group to calculate least squares means and standard errors at each time point. Both analyses account for the autocorrelation within each animal and the loss of data that occurs when animals are removed or lost before Day 33.

Data set [2] concerns immune cells. As to the kind of experiment: Flow cytometry analysis of immune cells in spleens and tumors. Format: in vivo, mouse. The note with it: compared to concurrent combination or vehicle control. The method, then:
Spleens and tumors are collected from a subset of animals on the indicated study day(s) and processed for FACS analysis by homogenizing tissues through a tissue strainer to prepare a single cell suspension in culture medium. Single cell suspensions are then stained with fluorescently-labeled antibodies to identify immune markers including: CD3, CD4, CD8, CD11b, CD19, CD45, FoxP3, PD-L1, F4/80 and a fixable viability dye. Cells are analyzed using a BD LSR II flow cytometer. Data are collected and analyzed using Flowjo (Tree Star, Inc.) to measure the percentage of total live lymphocytes (Live, CD45+) in each tissue. Immune cell subsets are then measured as a percentage of CD45 cells, or as a percentage of the immediate parent population.
(A flow cytometer gives signals particle by particle.)

Data set [3] deals with T1, phospho-AXL (p-AXL) (Mus musculus, UniProt Q00993).
T1 construct: CT26 cells also express high level of phospho-AXL (p-AXL) by western blot analysis; endogenous in cells; host or cells: CT26 (mouse colorectal cancer line)
In words: Mouse phospho-RTK array in CT26 cells. The data set is classed as cell-based. The note with it: 500 nM, CT26 cells in vitro. The procedure: CT26 CRC tumor cells harbor KRAS activating mutation G12D. […] CT26 cells also express high level of phospho-AXL (p-AXL) by western blot analysis and merestinib is shown to decrease p-AXL in vitro by more than 60% at a concentration of 500 nM in the mouse phospho-RTK array, but show very little effect on CT26 cell proliferation (IC50>20 μM).

T1 sequence (Q00993 19-888): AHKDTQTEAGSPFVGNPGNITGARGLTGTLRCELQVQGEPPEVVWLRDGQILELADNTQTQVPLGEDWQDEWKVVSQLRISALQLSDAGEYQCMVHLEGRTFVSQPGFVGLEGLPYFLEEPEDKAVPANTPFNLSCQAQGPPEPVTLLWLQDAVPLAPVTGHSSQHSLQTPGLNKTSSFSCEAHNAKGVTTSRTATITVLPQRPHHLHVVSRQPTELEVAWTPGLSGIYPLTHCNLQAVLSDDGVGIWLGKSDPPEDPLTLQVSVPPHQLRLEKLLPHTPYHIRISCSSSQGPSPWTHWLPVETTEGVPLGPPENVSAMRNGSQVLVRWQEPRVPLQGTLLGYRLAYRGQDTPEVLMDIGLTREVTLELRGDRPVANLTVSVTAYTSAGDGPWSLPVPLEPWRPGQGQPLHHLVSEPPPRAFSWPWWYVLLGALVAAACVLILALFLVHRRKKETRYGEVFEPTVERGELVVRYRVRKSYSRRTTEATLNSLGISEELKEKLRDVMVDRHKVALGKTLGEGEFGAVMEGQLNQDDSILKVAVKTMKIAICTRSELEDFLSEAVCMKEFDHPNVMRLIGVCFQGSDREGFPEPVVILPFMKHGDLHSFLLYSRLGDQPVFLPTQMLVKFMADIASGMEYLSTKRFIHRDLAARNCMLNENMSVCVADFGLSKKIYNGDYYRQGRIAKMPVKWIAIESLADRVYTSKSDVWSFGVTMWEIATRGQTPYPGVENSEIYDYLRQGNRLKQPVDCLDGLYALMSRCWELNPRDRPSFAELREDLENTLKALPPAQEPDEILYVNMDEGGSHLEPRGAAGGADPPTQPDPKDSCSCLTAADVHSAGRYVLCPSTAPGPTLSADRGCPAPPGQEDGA

Regarding `Cc1ccc(C(=O)Nc2ccc(Oc3cc4cnn(C)c4cc3-c3cn[nH]c3)c(F)c2)c(=O)n1-c1ccc(F)cc1` [merestinib, N-(3-fluoro-4-(1-methyl-6-(1H-pyrazol-4-yl)-1H-indazol-5-yloxy)phenyl)-1-(4-fluorophenyl)-6-methyl-2-oxo-1,2-dihydropyridine-3-carboxamide], the figures for the “Body weight change from baseline (%)” value in data set [1] (6 mg/kg once daily orally), in data set [1] (12 mg/kg once daily orally) and in data set [1] (24 mg/kg once daily orally) were 5.7%, 3.4% and 3.0%, respectively. The T/C % in data set [1] (6 mg/kg once daily orally) is recorded as 52.8%; in data set [1] (12 mg/kg once daily orally), 34.8%; in data set [1] (24 mg/kg once daily orally), 13.4%. Also, the “anti-tumor effect” value in data set [1] (24 mg/kg dose) is given as “tumor stasis”. The “anti-tumor effect as compared to vehicle control” value in data set [1] (6, 12, 24 mg/kg once daily orally) was “significant anti-tumor effect”. In data set [1] (all three doses (6, 12, 24 mg/kg), no significant loss in body weight), the tolerability entry is listed as “well tolerated”. For the same compound, the “change in immune cells by flow cytometry” value in data set [2] is “no significant change”. Moreover, the “decrease of p-AXL” value in data set [3] is “more than 60%”.
